Source: patent US9388189B2, “Pyrrolotriazinone derivatives as PI3K inhibitors” (ALMIRALL, S.A., priority 2012, dated 2016)

These molecules were tested against PI3Kδ (PI3Kd) (Homo sapiens (Human), UniProt O00329) (assay: PI3K HTRF enzymatic inhibition assay (cell-free), delta isoform). Conditions: read-out: IC50 PI3Kd HTRF; recombinant PI3K delta, [ATP] 15 μM, [PIP2] 2 μM, 30 min preincubation.
Sequence of PI3Kδ (PI3Kd) (O00329 whole entry, canonical isoform): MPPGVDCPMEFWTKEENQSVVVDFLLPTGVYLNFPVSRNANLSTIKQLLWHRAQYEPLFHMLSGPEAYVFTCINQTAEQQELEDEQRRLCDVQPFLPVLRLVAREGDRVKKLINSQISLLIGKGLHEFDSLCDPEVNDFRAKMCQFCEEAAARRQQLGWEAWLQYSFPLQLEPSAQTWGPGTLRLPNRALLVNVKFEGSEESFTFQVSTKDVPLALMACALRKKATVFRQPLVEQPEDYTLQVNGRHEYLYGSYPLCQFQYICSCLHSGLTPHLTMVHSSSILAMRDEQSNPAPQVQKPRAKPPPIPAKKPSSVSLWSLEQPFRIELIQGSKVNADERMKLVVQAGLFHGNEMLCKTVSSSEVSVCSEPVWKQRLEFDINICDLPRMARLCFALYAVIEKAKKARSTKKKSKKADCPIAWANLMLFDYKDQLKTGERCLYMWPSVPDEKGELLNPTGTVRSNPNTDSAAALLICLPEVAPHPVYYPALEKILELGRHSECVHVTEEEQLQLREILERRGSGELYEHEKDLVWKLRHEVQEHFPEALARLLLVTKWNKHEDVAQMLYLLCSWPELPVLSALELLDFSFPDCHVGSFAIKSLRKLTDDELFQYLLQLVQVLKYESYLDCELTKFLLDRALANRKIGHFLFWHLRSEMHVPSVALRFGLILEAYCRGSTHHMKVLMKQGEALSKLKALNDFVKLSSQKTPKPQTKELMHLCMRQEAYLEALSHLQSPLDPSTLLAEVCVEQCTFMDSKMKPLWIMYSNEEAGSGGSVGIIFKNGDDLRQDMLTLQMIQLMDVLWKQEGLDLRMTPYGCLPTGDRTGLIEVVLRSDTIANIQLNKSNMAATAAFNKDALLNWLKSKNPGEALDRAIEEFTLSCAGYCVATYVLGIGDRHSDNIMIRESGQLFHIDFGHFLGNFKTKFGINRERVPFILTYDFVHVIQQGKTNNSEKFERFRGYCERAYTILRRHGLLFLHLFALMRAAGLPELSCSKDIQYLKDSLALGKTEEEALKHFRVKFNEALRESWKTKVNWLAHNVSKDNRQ
Sequence of PI3Kδ (PI3Kd) (P27986 whole entry partner, canonical isoform): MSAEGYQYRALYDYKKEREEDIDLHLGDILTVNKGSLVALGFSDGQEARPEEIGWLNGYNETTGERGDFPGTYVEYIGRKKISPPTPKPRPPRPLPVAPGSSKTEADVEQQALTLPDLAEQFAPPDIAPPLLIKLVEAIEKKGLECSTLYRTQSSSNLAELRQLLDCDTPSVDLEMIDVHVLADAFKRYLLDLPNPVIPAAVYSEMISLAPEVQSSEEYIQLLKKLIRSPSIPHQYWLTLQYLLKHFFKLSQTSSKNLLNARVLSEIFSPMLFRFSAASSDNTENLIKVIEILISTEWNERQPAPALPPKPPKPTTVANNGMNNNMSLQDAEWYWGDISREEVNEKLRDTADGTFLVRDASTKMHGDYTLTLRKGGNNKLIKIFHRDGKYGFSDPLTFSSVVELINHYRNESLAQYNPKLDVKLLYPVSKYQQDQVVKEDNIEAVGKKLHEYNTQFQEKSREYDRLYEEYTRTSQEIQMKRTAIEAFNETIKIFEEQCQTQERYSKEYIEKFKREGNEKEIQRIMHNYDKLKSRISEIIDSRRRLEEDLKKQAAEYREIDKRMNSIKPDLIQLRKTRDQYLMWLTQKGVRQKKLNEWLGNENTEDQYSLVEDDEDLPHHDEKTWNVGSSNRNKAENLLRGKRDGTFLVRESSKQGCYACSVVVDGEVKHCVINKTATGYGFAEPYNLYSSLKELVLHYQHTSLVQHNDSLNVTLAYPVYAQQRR
Excerpt: Compounds were screened for their ability to inhibit PI3Kα (PI3Ka), PI3Kβ (PI3Kb), PI3Kδ (PI3Kd) and PI3Kγ (PI3Kg) using a cell-free based PI3K HTRF™ assay (Millipore, ref. #33-017).
PI-3 Kinase HTRF kit (ref. #33-037) and the different PI3K recombinant isoforms (ref. #14-602, ref. #14-603, ref. #14-604, ref. #15-558 for Alpha, Beta, Delta and Gamma respectively) were purchased at Millipore (expressed in insect cells). ATP was purchased at Sigma Aldrich (ref. #A7699).
The compounds were pre-incubated with the enzyme for 30 min before starting of the catalytic reaction. [PIP2] was used at its Km. […] Time of assay and [Enzyme] were optimized to work in the linear range. Stop and Detection mixtures were used as specified in the Millipore PI-3 Kinase kit.
Reaction time and enzyme concentration in the assay will depend of each batch.
All experiments were analysed using Activity Base software from IDBS and the four-parameter log equation.

Going from `Cc1ccn2nc([C@H](C)Nc3ncnc4[nH]cc(-c5ccc(NS(=O)(=O)N(C)C)cc5O)c34)n(-c3ccccc3)c(=O)c12` [Example 239, N′-[3-Hydroxy-4-(4-{[(1S)-1-(5-methyl-4-oxo-3-phenyl-3,4-dihydropyrrolo[2,1-f][1,2,4]triazin-2-yl)ethyl]amino}-7H-pyrrolo[2,3-d]pyrimidin-5-yl)phenyl]-N,N-dimethylsulfamide] to “(S)—N-(6-(4-Amino-6-((1-(5-methyl-4-oxo-3-phenyl-3,4-dihydropyrrolo[2,1-f][1,2,4]triazin-2-yl)ethyl)amino)pyrimidin-5-yl)-1H-indol-4-yl)-4-hydroxybenzenesulfonamide [Example 190]”, the IC50 falls from 2 nM to 0.8 nM (2.5-fold). The second is the more potent here.

“(S)—N-((1H-Pyrazol-4-yl)ethyl)-4-((1-(5-methyl-4-oxo-3-phenyl-3,4-dihydropyrrolo[2,1-f][1,2,4]triazin-2-yl)ethyl)amino)-7H-pyrrolo[2,3-d]pyrimidine-5-carboxamide [Example 88]” showed an IC50 of 41 nM.
